Experimental data: patent US7105539B2, “Derivatives of succinic and glutaric acids and analogs thereof useful as inhibitors of phex” (Enobia Pharma, priority 2002, dated 2006)

How the values were obtained:
[1] = target: T1, sPHEX (Homo sapiens, UniProt P78562); assay: Protection of PHEX substrate PTHrP107-139 from sPHEX degradation (RP-HPLC); type: biochemical; conditions: 1×10^−5M inhibitor, 1.0 μg sPHEX, 30 min, 37° C.; without inhibitor approximately 75% degraded
T1 construct: The soluble form of the metallopeptidase PHEX (sPHEX) was purified to homogeneity; made in house
T1 sequence (P78562 53-749 limits assumed): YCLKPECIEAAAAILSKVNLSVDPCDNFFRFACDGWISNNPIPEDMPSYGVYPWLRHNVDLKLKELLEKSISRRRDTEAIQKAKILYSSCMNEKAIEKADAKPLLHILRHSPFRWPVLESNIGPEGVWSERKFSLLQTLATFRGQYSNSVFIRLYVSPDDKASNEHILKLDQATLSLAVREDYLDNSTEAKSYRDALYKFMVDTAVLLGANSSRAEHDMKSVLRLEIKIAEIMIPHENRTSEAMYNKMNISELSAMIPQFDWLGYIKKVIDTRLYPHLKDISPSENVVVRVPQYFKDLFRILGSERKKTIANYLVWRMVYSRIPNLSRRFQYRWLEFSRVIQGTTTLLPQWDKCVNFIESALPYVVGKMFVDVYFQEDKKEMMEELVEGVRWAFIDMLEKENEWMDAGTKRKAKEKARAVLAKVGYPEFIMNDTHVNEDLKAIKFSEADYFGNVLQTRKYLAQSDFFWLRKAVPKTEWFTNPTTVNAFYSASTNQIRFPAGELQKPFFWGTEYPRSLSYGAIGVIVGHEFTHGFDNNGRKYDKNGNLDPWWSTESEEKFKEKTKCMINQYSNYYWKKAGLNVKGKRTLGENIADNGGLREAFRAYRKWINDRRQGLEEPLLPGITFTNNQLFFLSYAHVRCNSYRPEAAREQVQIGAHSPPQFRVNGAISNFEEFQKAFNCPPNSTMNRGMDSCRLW
Protocol: In general, in order to show inhibition of sPHEX, the enzyme is incubated in the absence or the presence of the inhibiting compound, and a substrate is added in conditions that are suitable for sPHEX enzymatic activity. Hydrolysis of the substrate in the absence or the presence of the inhibiting compound is monitored.
For example, 1.0 μg of purified sPHEX was first incubated at 37° C. for 15 min with or without 1×10^−5M of compound MH-2-64C (FIG. 1) in 90 μl 50 mM MES (2-(N-morpholino)ethanesulfonic acid) pH 6.5, 150 mM NaCl. Then, 2.5 μg of peptide PTHrP107-139 in 10 μl of the same buffer were added and the incubation continued for 30 min. The reaction mixture also contained 1.3 μg of the amino acid Phe which was used as an internal standard. After the incubation period, the reaction was stopped by the addition of EDTA to a final concentration of 5 mM. Detection of cleavage products was performed by reverse phase high performance liquid chromatography (RP-HPLC) on a C18 μBondapak™ analytical column (Waters, Mississauga, ON, Canada) with a UV detector set at 220 nm. […] Results were quantified by comparing the area under the undigested peak of PTHrP107-139, after normalization for the amount of Phe present in the sample. […]

[2] = test system: rat mandibular defect; assay: Bone lesion repair in rat mandibular defect model (hydroxyapatite particles soaked in inhibitor); type: in vivo; conditions: for bone formation (scanning electron microscopy, % of total defect area): 14 days healing
Protocol: Osteogenic properties of PHEX inhibitors can be shown in a model of rat mandibular defect. For example, a 2 mm size bone defect was created in the rat mandible as described previously (Vu et al., 1999). Rats were anesthetized and the vestibular surface of the right mandibular ramus was exposed as follow: an incision was made through the skin along an imaginary line forming a 90° angle with the lower lip to access the muscle layer. A scalpel blade was used to make an incision parallel to the fibers of the deep portion of masseter muscle, about 2 mm posterior to the facial artery (largest branch of the external carotid), in the portion where it gives rise to the labial mandibular artery. The periosteum was elevated and the underlying bony surface exposed. A 2 mm×2 mm bony window was drilled between the second and third molar using a slow-speed dental drill with a carbide round burr size 1.4 mm (Brasseler) and a drill size 2 mm (Straumann Canada Ltd). Saline irrigation was used during the drilling. Porous hydroxyapatite particles (Fin-Ceramica Faenza s.r.l.) with pore size ranged from 450 to 600 μm were accommodated in the bony hole and pushed into it. The particles had been incubated previously in solutions of varying concentrations of PHEX inhibitor or vehicle for 16 to 24 hours at 4° C. Once the bony window was filled the lesion was covered with a membrane of hydroxyapatite (Fin-Ceramica Faenza s.r.l.) which was fixed to the surrounding bone surface with topical tissue adhesive. The muscle fibers were carefully repositioned on the mandible and sutured with absorbable surgical sutures (Chromic Gut, Ethicon Inc.). The skin was sutured for total coverage with silk sutures (Sherwood Davis & Geck, Wayne). After 7 days of treatment the bone lesion was exposed and varying concentrations of PHEX inhibitor or vehicle was reapplied to hydroxyapatite particles. Treatment was continued for another 7 days.
After the 14 day healing period, bone formation at the defect was evaluated by scanning electron microscopy and microcomputed tomography. Animals were sacrificed by intravascular perfusion through the left ventricle with 4% paraformaldehyde and 0.1% glutaraldehyde solution. Treated hemimandibles were taken, immersed in the fixative overnight at 4° C. then washed and kept in 0.1 M cacodylate buffer pH 8.0 until analysis. Specimens for quantification by scanning electron microscopy were dehydrated in a graded alcohol series and embedded in LR White resin (Marivac) for further sectioning along their longitudinal axis. […] Amount of bone tissue present in the sections was quantified by manual tracing using the MOP-3 system (Carl Zeiss) and was expressed as a percentage of the total defect area. […]

- degradation of PTHrP107-139 by sPHEX [1]: fully prevented
SMILES: O=C(O)CC(CC(=O)NO)C(=O)NCCc1ccc(-c2ccccc2)cc1 (centres unmarked) [Example 126, 3-(2-Biphenyl-4-yl-ethylcarbamoyl)-4-hydroxycarbamoyl-butyric acid]
- bone formation (scanning electron microscopy, % of total defect area) ([2]; 1×10^−5 M on hydroxyapatite particles, compared to saline): reduced significantly
- bone formation (microcomputed tomography 3D reconstruction) ([2]; high inhibitor dose, one representative specimen): reduced bone formation
- bone around particles (microcomputed tomography 3D reconstruction) ([2]; low dose of inhibitor vs particles soaked in saline, one representative specimen): more bone
- bone formation (scanning electron microscopy, % of total defect area) ([2]; lower concentrations on hydroxyapatite particles): significantly stimulated
